Assay results reported in patent US20240425479A1, “HALO-SUBSTITUTED AMINO AZA-HETEROARYL COMPOUNDS AS INHIBITORS OF THE HAEMATOPOIETIC PROGENITOR KINASE 1 (HPK1)” (priority 2021, published 2024).
Counter-ions that a name gives are not always drawn.

How the values were obtained:
[1] = target: Lck (h) (Homo sapiens, UniProt P06239); assay: Lck human STE kinase enzymatic radiometric assay; format: biochemical; conditions: for IC50: read-out: Lck IC50 nM Range
Experimental: (b) Lck Human STE Kinase Enzymatic Radiometric Assay
Lck (h) is incubated with 50 mM Tris pH 7.5, 0.1 mM EGTA, 0.1 mM Na3VO4, 250 uM KVEKIGEGTYGVVYK (Cdc2 peptide), 10 mM MgAcetate and [gamma-33P]-ATP (specific activity and concentration as required). The reaction is initiated by the addition of the Mg/ATP mix. After incubation for 40 minutes at room temperature, the reaction is stopped by the addition of phosphoric acid to a concentration of 0.5%, 10 μL of the reaction is then spotted onto a P30 filtermat and washed four times for 4 minutes in 0.425% phosphoric acid and once in methanol prior to drying and scintillation counting. For more details on the kinase assay procedures see: Gao, Y. et. al.; Biochem J., 451 (2): 313-328, 2013.

[2] = target: T1, Recombinant (1-346) HPK1 (h) (Homo sapiens, UniProt Q92918); assay: HPK1 human STE kinase enzymatic radiometric assay; format: biochemical; conditions: read-out: HPK1 IC50 nM Range
T1 construct: Recombinant (1-346) HPK1 (h) is incubated with 8 mM MOPS pH 7.0
T1 sequence (Q92918 1-346): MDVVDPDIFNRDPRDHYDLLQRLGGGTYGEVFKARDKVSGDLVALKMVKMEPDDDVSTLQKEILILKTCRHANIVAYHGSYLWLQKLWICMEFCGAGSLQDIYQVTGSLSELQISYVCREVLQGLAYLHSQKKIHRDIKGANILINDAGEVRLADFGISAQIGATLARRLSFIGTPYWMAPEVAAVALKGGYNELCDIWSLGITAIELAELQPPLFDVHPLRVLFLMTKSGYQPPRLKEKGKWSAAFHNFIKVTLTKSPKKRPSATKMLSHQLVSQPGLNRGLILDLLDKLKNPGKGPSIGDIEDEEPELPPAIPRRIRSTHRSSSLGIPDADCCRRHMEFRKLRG
Summary of the method: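 Compounds in 3-fold, 9-point serial dilution; kinase (residues 1-346) phosphorylates myelin basic protein (0.33 mg/mL) using [gamma-33P]-ATP at pH 7.0 (MOPS, EDTA, Mg acetate) for 40 min, room temperature. Acid-quenched mixture filtered onto P30 mats; incorporated radioactivity read by scintillation counting.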

Lck (h), sequence (P06239 whole entry): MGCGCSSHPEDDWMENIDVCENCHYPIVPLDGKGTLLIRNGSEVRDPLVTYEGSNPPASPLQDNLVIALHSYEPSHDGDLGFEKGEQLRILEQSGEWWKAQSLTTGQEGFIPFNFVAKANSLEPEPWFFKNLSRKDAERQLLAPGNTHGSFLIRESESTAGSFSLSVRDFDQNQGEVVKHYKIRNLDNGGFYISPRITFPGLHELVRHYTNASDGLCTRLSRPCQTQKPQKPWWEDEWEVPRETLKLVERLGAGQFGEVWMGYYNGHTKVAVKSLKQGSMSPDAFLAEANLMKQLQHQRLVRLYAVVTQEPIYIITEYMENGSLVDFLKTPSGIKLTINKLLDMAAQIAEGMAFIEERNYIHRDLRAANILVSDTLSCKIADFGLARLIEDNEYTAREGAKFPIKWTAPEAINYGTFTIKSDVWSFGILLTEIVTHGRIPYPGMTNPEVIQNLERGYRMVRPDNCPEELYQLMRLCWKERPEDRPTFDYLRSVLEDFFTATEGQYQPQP

Row | SMILES | IC50 [1] [nM] | IC50 [2] [nM] | LcK IC50/HPK IC50 selectivity ([1]; ratio Lck IC50 / HPK1 IC50)
1 | CC(C)N1CCN(c2ccc(-c3nc(-c4ccc5c(c4)CCNC5=O)c(N)nc3F)cc2)CC1 [Example I-1, 6-(3-amino-5-fluoro-6-(4-(4-isopropylpiperazin-1-yl)phenyl)pyrazin-2-yl)-3,4-dihydroisoquinolin-1(2H)-one] | > 1000 | 0.1 to 10 | 
2 | CC(C)N1CCN(c2ccc(-c3nc(-c4cc5c(cc4F)C(=O)NCC5)c(N)nc3F)cc2)CC1 [Example I-2, 6-(3-amino-5-fluoro-6-(4-(4-isopropylpiperazin-1-yl)phenyl)pyrazin-2-yl)-7-fluoro-3,4-dihydroisoquinolin-1(2H)-one] | > 1000 | 0.1 to 10 | 
3 | CN1C[C@H]2C[C@@]2(c2ccc(-c3nc(-c4cc5c(cc4F)C(=O)NCC5)c(N)nc3F)cc2)C1 [Example I-3, 6-(3-amino-5-fluoro-6-(4-((1R,5S)-3-methyl-3-azabicyclo[3.1.0]hexan-1-yl)phenyl)pyrazin-2-yl)-7-fluoro-3,4-dihydroisoquinolin-1(2H)-one] | > 1000 | 0.1 to 10 | 
4 | CC(C)N1C[C@H]2C[C@@]2(c2ccc(-c3nc(-c4cc5c(cc4F)C(=O)NCC5)c(N)nc3F)cc2)C1 [Example I-4, 6-(3-amino-5-fluoro-6-(4-((1R,5S)-3-isopropyl-3-azabicyclo[3.1.0]hexan-1-yl)phenyl)pyrazin-2-yl)-7-fluoro-3,4-dihydroisoquinolin-1(2H)-one] | > 1000 | 0.1 to 10 | 
5 | CN1C[C@@H]2C[C@]2(c2ccc(-c3nc(-c4cc5c(cc4F)C(=O)NCC5)c(N)nc3F)cc2)C1 [Example I-5, 6-(3-amino-5-fluoro-6-(4-((1S,5R)-3-methyl-3-azabicyclo[3.1.0]hexan-1-yl)phenyl)pyrazin-2-yl)-7-fluoro-3,4-dihydroisoquinolin-1(2H)-one] | > 1000 | 0.1 to 10 | 
6 | CC(C)N1C[C@@H]2C[C@]2(c2ccc(-c3nc(-c4cc5c(cc4F)C(=O)NCC5)c(N)nc3F)cc2)C1 [Example I-6, 6-(3-amino-5-fluoro-6-(4-((1S,5R)-3-isopropyl-3-azabicyclo[3.1.0]hexan-1-yl)phenyl)pyrazin-2-yl)-7-fluoro-3,4-dihydroisoquinolin-1(2H)-one] | 101 to 1000 | 0.1 to 10 | 
7 | CC(C)N1CCN(c2ccc(-c3nc(-c4ccc5c(c4)CCNC5=O)c(N)nc3Cl)cc2)CC1 [Example I-7, 6-(3-amino-5-chloro-6-(4-(4-isopropylpiperazin-1-yl)phenyl)pyrazin-2-yl)-3,4-dihydroisoquinolin-1(2H)-one] | > 1000 | 11 to 100 | 
8 | CC(C)N1CCN(c2ccc(-c3nc(-c4cc5c(cc4F)C(=O)NCC5)c(N)nc3Cl)cc2)CC1 [Example I-8, 6-(3-amino-5-chloro-6-(4-(4-isopropylpiperazin-1-yl)phenyl)pyrazin-2-yl)-7-fluoro-3,4-dihydroisoquinolin-1(2H)-one] | > 1000 | 11 to 100 | 
9 | CC(C)N1CC=C(c2ccc(-c3nc(-c4cc5c(cc4F)C(=O)NCC5)c(N)nc3F)cc2)CC1 [Example I-9, 6-(3-amino-5-fluoro-6-(4-(1-isopropyl-1,2,3,6-tetrahydropyridin-4-yl)phenyl)pyrazin-2-yl)-7-fluoro-3,4-dihydroisoquinolin-1(2H)-one] | 101 to 1000 | 0.1 to 10 | 
10 | CC(C)N1CCC(c2ccc(-c3nc(-c4cc(F)c5c(c4)CCNC5=O)c(N)nc3F)cc2)CC1 [Example I-10, 6-(3-amino-5-fluoro-6-(4-(1-isopropylpiperidin-4-yl)phenyl)pyrazin-2-yl)-8-fluoro-3,4-dihydroisoquinolin-1(2H)-one] | 101 to 1000 | 0.1 to 10 | 
11 | CNCC1Cc2cc(-c3nc(-c4ccc(N5CCN(C(C)C)CC5)cc4)c(F)nc3N)ccc2C(=O)N1 (stereo not drawn) [Example I-11, 6-(3-amino-5-fluoro-6-(4-(4-isopropylpiperazin-1-yl)phenyl)pyrazin-2-yl)-3-((methylamino)methyl)-3,4-dihydroisoquinolin-1(2H)-one] | > 1000 | 0.1 to 10 | 
12 | CNCC1Cc2cc(-c3nc(-c4ccc(N5CCOCC5)cc4)c(F)nc3N)ccc2C(=O)N1 (stereo not drawn) [Example I-12, 6-(3-amino-5-fluoro-6-(4-morpholinophenyl)pyrazin-2-yl)-3-((methylamino)methyl)-3,4-dihydroisoquinolin-1(2H)-one] | > 1000 | 0.1 to 10 | 
13 | Nc1nc(F)c(-c2ccc(N3CCOCC3)cc2)nc1-c1ccc2c(c1)CCNC2=O [Example I-17, 6-(3-amino-5-fluoro-6-(4-morpholinophenyl)pyrazin-2-yl)-3,4-dihydroisoquinolin-1(2H)-one] | > 1000 | 0.1 to 10 | 
14 | Nc1nc(F)c(-c2ccc(N3CCOCC3)cc2)nc1-c1ccc2c(c1)CCNC2=O [drawing 1319] |  |  | >1666

Further lines, with some results ahead:

Row | IC50 [1] [nM] | IC50 [2] [nM] | SMILES | LcK IC50/HPK IC50 selectivity ([1]; ratio Lck IC50 / HPK1 IC50)
15 | 101 to 1000 | 0.1 to 10 | CC(C1CC1)N1CCN(c2ccc(-c3nc(-c4cc(F)c5c(c4)CCNC5=O)c(N)nc3F)cc2)CC1 (single isomer, unassigned) [Example I-29, 6-(3-amino-6-(4-(4-(1-cyclopropylethyl)piperazin-1-yl)phenyl)-5-fluoropyrazin-2-yl)-8-fluoro-3,4-dihydroisoquinolin-1(2H)-one] | 
16 | 101 to 1000 | 0.1 to 10 | CC(C1CC1)N1CCN(c2ccc(-c3nc(-c4cc(F)c5c(c4)CCNC5=O)c(N)nc3F)cc2)CC1 (single isomer, unassigned) [Example I-30, 6-(3-amino-6-(4-(4-(1-cyclopropylethyl)piperazin-1-yl)phenyl)-5-fluoropyrazin-2-yl)-8-fluoro-3,4-dihydroisoquinolin-1(2H)-one] | 
17 | > 1000 | 0.1 to 10 | Nc1nc(F)c(-c2ccc(C3CCN(CC4CC4)CC3)cc2)nc1-c1cc(F)c2c(c1)CCNC2=O [Example I-13, 6-(3-amino-6-(4-(1-(cyclopropylmethyl)piperidin-4-yl)phenyl)-5-fluoropyrazin-2-yl)-8-fluoro-3,4-dihydroisoquinolin-1(2H)-one Formate] | 
18 | 101 to 1000 | 0.1 to 10 | CC(C)N1CCN(c2ccc(-c3nc(-c4cc(F)c5c(c4)CCNC5=O)c(N)nc3F)cc2)CC1 [Example I-14, 6-(3-amino-5-fluoro-6-(4-(4-isopropylpiperazin-1-yl)phenyl)pyrazin-2-yl)-8-fluoro-3,4-dihydroisoquinolin-1(2H)-one] | 
19 | > 1000 | 0.1 to 10 | CC(C)N1C[C@H]2C[C@@]2(c2ccc(-c3nc(-c4cc(F)c5c(c4)CCNC5=O)c(N)nc3F)cc2)C1 [Example I-15, 6-(3-amino-5-fluoro-6-(4-((1R,5S)-3-isopropyl-3-azabicyclo[3.1.0]hexan-1-yl)phenyl)pyrazin-2-yl)-8-fluoro-3,4-dihydroisoquinolin-1(2H)-one formate] | 
20 | > 1000 | 0.1 to 10 | Nc1nc(F)c(-c2ccc(C3CCOCC3)c([C@@H]3CCCN3)c2)nc1-c1ccc2c(c1)CCNC2=O [Example I-18, (S)-6-(3-amino-5-fluoro-6-(3-(pyrrolidin-2-yl)-4-(tetrahydro-2H-pyran-4-yl)phenyl)pyrazin-2-yl)-3,4-dihydroisoquinolin-1(2H)-one] | 
21 | > 1000 | 0.1 to 10 | CC(C)N1CCN(c2ccc(-c3nc(-c4ccc5c(=O)[nH]ccc5c4)c(N)nc3F)cc2)CC1 [Example I-20, 6-(3-amino-5-fluoro-6-(4-(4-isopropylpiperazin-1-yl)phenyl)pyrazin-2-yl)isoquinolin-1(2H)-one] | 
22 | 101 to 1000 | 0.1 to 10 | CC(C)N1CCN(c2ccc(-c3nc(-c4cc(F)c5c(=O)[nH]ccc5c4)c(N)nc3F)cc2)CC1 [Example I-21, 6-(3-amino-5-fluoro-6-(4-(4-isopropylpiperazin-1-yl)phenyl)pyrazin-2-yl)-8-fluoroisoquinolin-1(2H)-one] | 
23 | 101 to 1000 | 0.1 to 10 | CC(C)N1CCN(c2ccc(-c3nc(-c4cc5cc[nH]c(=O)c5cc4F)c(N)nc3F)cc2)CC1 [Example I-22, 6-(3-amino-5-fluoro-6-(4-(4-isopropylpiperazin-1-yl)phenyl)pyrazin-2-yl)-7-fluoroisoquinolin-1(2H)-one] | 
24 | > 1000 | 0.1 to 10 | Nc1nc(F)c(-c2ccc(N3CCN(CC4CC4)CC3)cc2)nc1-c1ccc2c(=O)[nH]ccc2c1 [Example I-23, 6-(3-amino-6-(4-(4-(cyclopropylmethyl)piperazin-1-yl)phenyl)-5-fluoropyrazin-2-yl)isoquinolin-1(2H)-one] | 
25 |  | 11 to 100 | Cc1c[nH]c(=O)c2ccc(-c3nc(-c4ccc(O)c(CN(C)C)c4)c(F)nc3N)cc12 [Example I-306, 6-(3-amino-6-(3-((dimethylamino)methyl)-4-hydroxyphenyl)-5-fluoropyrazin-2-yl)-4-methylisoquinolin-1(2H)-one] | 
